A short description of data set [1]: Chemical stability (natamycin degradation) in beverages stored at 4° C. The conditions noted are these: for Total degradation: 4° C., 150 to 170 ppm natamycin. Format: physicochemical. Here is the method: The release rate of the new slow release natamycin was compared with that of known commercial natamycin DELVOCID® Instant (DSM, The Netherlands) by measuring their chemical stability in various beverages. The natamycin preparations were suspended in beverages to a final concentration of 150 to 170 ppm natamycin. The natamycin containing beverages were stored at 4° C. and the natamycin concentration in the beverage was measured in time.

Data set [2] deals with Saccharomyces cerevisiae ATCC 9763. In words: Microbiological method for determining natamycin release rate from a loaded filter paper disc into seeded agar (inhibition zone). The class given is physicochemical. The source says: The test used to measure the natamycin release rate has been described in example 1 of this application. Briefly, the sample comprising natamycin is applied to a carrier. The carrier can be any material that provides unlimited water transport. Preferably, the carrier is a filter paper disc, more preferably the filter paper disc used in example 1. Subsequently, the carrier loaded with the natamycin composition is applied to the surface of an agar plate seeded with yeast or fungal cells (in example 1 Saccharomyces cerevisiae cells were used). The agar plate and the carrier are subsequently incubated at a temperature such that the natamycin is released into the agar. (in example 1, the temperature chosen is 6° C.) during 24 hours. After having removed the carrier from the agar plate, the agar plate is incubated under growth permitting conditions for said cells (in example 1, the temperature is 30° C.) during a chosen period. In this case, the period is 24 hours or 48 hours depending on the type of release rate desired to be determined. Finally, inhibition of cell growth in the agar due to the presence of the natamycin, which has been released from the carrier into the agar, is determined. The size of the inhibition zone is a measure of the natamycin released from the sample. […] The discs were then put on agar, which was seeded with the Saccharomyces cerevisiae ATCC 9763. The petri dishes containing the agar were then stored for 24 hours at 6° C. to permit the natamycin to release into the agar. […] As a reference, discs were freshly loaded with a range of known amounts of natamycin dissolved in aqueous methanol. The next day, the sample discs were transferred to new petri dishes containing agar seeded with Saccharomyces cerevisiae. New discs freshly loaded with a range of known quantities of dissolved natamycin were prepared for use as a reference. The new dishes with the sample discs and the new reference were stored at 6° C. for 24 hours and the old dishes containing the released natamycin incubated at 30° C. for 24 hours. The size of the inhibition zone is a measure of the natamycin released from the sample disc. The amount of released natamycin can be calculated by methods know per se. By repeating the procedure, the released natamycin can be measured on a daily basis. Other release time periods may alternatively be chosen. Using the method described in example 1, the release rate profile of the new slow release natamycin was compared to the release rate profile of known commercial natamycin DELVOCID® (DSM, The Netherlands). Suspensions of the natamycin preparations were prepared in such a manner that each suspension contained 800 ppm natamycin as such. 50 μl of each of the respective mixtures was applied on a paper filter disc and the release rate was analysed using the method of example 1.

Data set [3] shares this test system. To be noted: carrier on agar surface of 0.6 cm diameter, carrier loading 40 μg; disclosed in U.S. Pat. No. 5,821,233; cited from earlier work.
The mark [4] stands for this setting: Initial release rate, 40 μg carrier loading, 0.6 cm disc, 6° C.

On to `C[C@@H]1C/C=C/C=C/C=C/C=C/[C@H](O[C@@H]2O[C@H](C)[C@@H](O)[C@H](N)[C@@H]2O)C[C@@H]2O[C@](O)(C[C@@H](O)C[C@H]3O[C@@H]3/C=C/C(=O)O1)C[C@H](O)[C@H]2C(=O)O` [Low release natamycin, natamycin], for which the Total degradation in data set [1] (Ice tea pH 3.2, 1 week) is reported as 3.4 ppm; in data set [1] (Ice tea pH 3.2, 2 weeks) it was 5.4 ppm; in data set [1] (Ice tea pH 3.2, 3 weeks) it was 3.2 ppm; in data set [1] (Ice tea pH 3.2, 4 weeks) it was 15.0 ppm; in data set [1] (Ice tea pH 3.2, 5 weeks), 17.4 ppm; in data set [1] (Tomato juice pH 4.2, 1 week), 5.1 ppm. For the same compound, the Total degradation is 13.1 ppm in data set [1] (Tomato juice pH 4.2, 2 weeks); 20.1 ppm in data set [1] (Tomato juice pH 4.2, 3 weeks); 23.2 ppm in data set [1] (Tomato juice pH 4.2, 4 weeks); 28.9 ppm in data set [1] (Tomato juice pH 4.2, 5 weeks). Also, the “Difference in total degradation (DELVOCID Instant minus slow release natamycin)” value in data set [1] (Ice tea, 1 week) came out at 11.5 ppm; in data set [1] (Ice tea, 2 weeks), 11.1 ppm; in data set [1] (Ice tea, 3 weeks), 12.1 ppm; in data set [1] (Ice tea, 4 weeks), 13.2 ppm; in data set [1] (Ice tea, 5 weeks), 14.3 ppm; in data set [1] (Tomato juice, 1 week), 3.5 ppm. Further, the “Difference in total degradation (DELVOCID Instant minus slow release natamycin)” value is recorded as 0.6 ppm in data set [1] (Tomato juice, 2 weeks); 6.4 ppm in data set [1] (Tomato juice, 3 weeks); 4.7 ppm in data set [1] (Tomato juice, 4 weeks); 3.7 ppm in data set [1] (Tomato juice, 5 weeks). In data set [1] (tomato juice and ice tea, inferred from degradation, in words), the “Release rate compared with DELVOCID Instant in beverages” value is “lower”. For the same compound, the “Release rate after 11 days” value is on record as 0.35 μg/24 hours in data set [2] (5 μg carrier loading), 0.6 μg/24 hours in data set [2] (10 μg carrier loading) and 1.2 μg/24 hours in data set [2] (40 μg carrier loading). The “% decrease in release rate after 9 days” value was 35% in data set [2] (10 μg carrier loading) and 45% in data set [2] (40 μg carrier loading). For the same compound, in data set [2] (setting [4]), the “Release rate after 24 hours” value was below 2 μg/24 hours. The “Release rate after 48 hours” value in data set [2] (setting [4]) is below 1.8 μg/24 hours. In addition, the “Release rate compared with DELVOCID” value in data set [2] (comparison in words) is “lower release rate”.
For the compound `C[C@@H]1C/C=C/C=C/C=C/C=C/[C@H](O[C@@H]2O[C@H](C)[C@@H](O)[C@H](N)[C@@H]2O)C[C@@H]2O[C@](O)(C[C@@H](O)C[C@H]3O[C@@H]3/C=C/C(=O)O1)C[C@H](O)[C@H]2C(=O)O` [natamycin], in data set [3], the “Release rate over the first 24 hours” value is reported as “at least 3 μg/24 hours”.

(Values after patent publication US20130309379A1, “Anti-Fungal Composition” (DSM IP ASSETS B.V., priority 2005, published 2013).)
